The term solubility denotes the dissolved amount per volume that the medium holds. The low end stands for a poorly soluble substance, the high end for a readily soluble substance. In general, AUC(0-inf) refers to total exposure, with the tail of the curve extrapolated. Read a high AUC(0-inf) as high exposure. One may read the clearance as the volume of plasma or blood freed of the substance per unit of time. As usually defined, the bioavailability is dose-corrected exposure relative to a reference, in per cent. A low value points to poor availability. A word on the Tmax: it is the time from dosing to the highest level. The term IC50 denotes the midpoint of a concentration-inhibition curve.

Data set [1] can be described thus: Solubility test of crystal form A in 9 vehicles (HPLC). The class given is physicochemical. Conditions: for Solubility (4 hrs) / Solubility (24 hrs) / solubility at 4 h / solubility at 24 h: 37° C.; for Solubility (4 hrs) / solubility at 4 h: stirring 4 hrs; for Solubility (24 hrs) / solubility at 24 h: stirring 24 hrs; for solubility at 4 h / solubility at 24 h: thermodynamic from solid. The protocol:
1. Preparation of diluent and mobile phase
Diluent: 300 mL of pure water and 100 mL of pure acetonitrile were accurately measured, and mixed in a 1 L glass bottle, ultrasonically degassed for 10 minutes for use.
Mobile phase A: 0.1% phosphoric acid aqueous solution
For example: 2.0 mL of phosphoric acid was added into 2000 mL of water, and the mixture was ultrasounded for 10 minutes, mixed evenly, and naturally cooled to room temperature, as mobile phase A.
Mobile phase B: acetonitrile.
2. Preparation of the control solution (using crystal form A per se as the control sample)
5 mg of crystal form A was accurately weighed and placed in a sample bottle, and 10 mL of diluent was added, and the mixture was ultrasounded for 5 minutes, naturally cooled to room temperature, mixed evenly, and labeled as working control solution STD-1.
5 mg of crystal form A was accurately weighed and placed in a sample bottle, and 10 mL of diluent was added, and the mixture was ultrasounded for 5 minutes, naturally cooled to room temperature, mixed evenly, and labeled as working control solution STD-2.
3. Preparation of linear solution
The aforementioned working control solution STD-1 was successively diluted by 1 time, 10 times, 100 times, 1000 times and 2000 times, and was labeled as linear solutions L1, L2, L3, L4 and L5.
6 mg of crystal form A was accurately weighed respectively and added into 8 mL glass bottle, and then 3 mL of different solvents (0.1N hydrochloric acid solution, 0.01N hydrochloric acid solution, purified water, pH 3.8 buffer solution, pH 4.5 buffer solution, pH 5.5 buffer solution, pH 6.0 buffer solution, pH 7.4 buffer solution, pH 6.8 buffer solution) were accurately added to prepare the suspensions. A stirrer was added to the above suspensions, and the suspensions were fully stirred at 37° C. in dark. After stirring, the solids in the pH 7.4 buffer solution and the pH 6.8 buffer solution were completely dissolved, 6 mg of crystal form A were accurately weighed respectively, and added to the buffer solutions, and stirred fully again to prepare suspensions. After stirring for 4 hours and 24 hours, samples were taken and centrifuged. The solutions were filtered with a filter membrane and their concentrations were measured by HPLC.

A short description of data set [2]: Plasma pharmacokinetics in male and female SD rats after single intravenous and intragastric administration. The data set is classed as in vivo. Conditions: rat; for clearance: read-out: plasma clearance rate; for Vd: read-out: steady state apparent volume of distribution (Vdss); for bioavailability: PO 4.0 mg/kg vs IV 2.0 mg/kg; for Cmax: read-out: peak concentration (Cmax); for Tmax: read-out: peak time Tmax. The source says: Experimental purpose: Plasma pharmacokinetics of male and female SD rats after single intravenous injection and intragastric administration as well as repeated intragastric administration for 8 days for the compound of formula (I).
1. In this experiment, 12 SD rats, half males and half females, were provided by Beijing Vital River Laboratory Animal Technologies Co., Ltd., and were divided into 2 groups according to the similarity of their body weights, each group had 3 females and 3 males. The details of the administration protocol and blood collection protocol were shown in Table 5 and Table 6, respectively.
All animals fasted every other night before the first day of administration and resumed to be fed 4 hours after the administration.
Note: DMSO means dimethyl sulfoxide; HP-β-CD means hydroxypropyl-β-cyclodextrin; MC means methyl cellulose;
IV means intravenous administration; PO means intragastric administration.
Sample Collection and Analysis Methods
0.15 mL of blood samples from experimental animals were collected by jugular vein puncture, and immediately transferred to labeled centrifuge tubes containing K2-EDTA (0.5 M), and the plasma was separated by centrifugation within 30 minutes (centrifugation condition: 3000 g, 4° C., 15 minutes). Plasma concentrations were measured using a validated LC/MS/MS analysis method; plasma concentrations were processed using a non-compartment model of WinNonlin™ Version 6.3 (Pharsight, Mountain View, Calif.) pharmacokinetics software, and the pharmacokinetic parameters were calculated using the linear logarithmic trapezoid method.

The target in data set [3] is T1, uric acid transporter URAT1 (Homo sapiens, UniProt Q96S37).
T1 construct: expressed in transfected cells; host or cells: HEK293A, stably overexpressing URAT1; the empty vector control is HEK293A-pcDNA3.1
T1 sequence (Q96S37 1-553): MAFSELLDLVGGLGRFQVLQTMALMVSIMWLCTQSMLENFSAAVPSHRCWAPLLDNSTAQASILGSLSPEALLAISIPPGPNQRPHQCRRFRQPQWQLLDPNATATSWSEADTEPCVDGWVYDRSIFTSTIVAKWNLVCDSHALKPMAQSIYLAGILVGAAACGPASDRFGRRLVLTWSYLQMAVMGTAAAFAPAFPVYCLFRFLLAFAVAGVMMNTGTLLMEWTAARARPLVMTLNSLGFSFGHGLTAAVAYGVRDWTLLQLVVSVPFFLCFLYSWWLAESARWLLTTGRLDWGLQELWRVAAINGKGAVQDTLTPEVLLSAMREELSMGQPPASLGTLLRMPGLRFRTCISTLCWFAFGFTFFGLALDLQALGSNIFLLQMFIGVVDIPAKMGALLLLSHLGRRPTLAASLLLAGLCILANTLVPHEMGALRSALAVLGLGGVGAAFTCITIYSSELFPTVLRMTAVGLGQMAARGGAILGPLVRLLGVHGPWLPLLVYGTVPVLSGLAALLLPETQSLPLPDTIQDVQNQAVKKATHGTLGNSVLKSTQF
In words: Uptake cell inhibition experiment: URAT1-mediated 14C-uric acid uptake in HEK293A-URAT1 cells. The class given is cell-based.
Description: 1) DMSO was used as the solvent of a 200-fold working solution, the storing solution was diluted to a 200-fold working solution at each administration concentration.
2) Hanks balanced salt solution (without Cl^−) was used as the solvent for the 2-fold working solution of transport protein URAT1, and then 200-fold working solution in 1) was diluted by 100 times to obtain a 2-fold working solution at each administration concentration. […]
First, the culture medium in the culture plate was removed, and it was washed once with Hanks buffer salt solution (without Cl^−). […] The cell lysate was taken into a scintillation vial, and 3 mL of Aquasol-2 scintillation liquid was added, and the radioactive intensity in the sample was measured by using Tri-Carb 2910TR liquid scintillation instrument. […]
Three repeats (i.e. n=3) were set for each administration concentration. Mean±standard error (SD) was calculated using statistical formulas in Microsoft® Excel 2010 software.
According to the inhibitory rate (IR) for each transporter at each administration concentration, IC50 value, the effect of the compound on the transport activity of the drug transporter was calculated through Prism5.0 in combination with the Forecast function in Microsoft® Excel 2010 software.

[4] abbreviates: aqueous buffer, pH 4.5 buffer solution.
The mark [5] stands for this setting: aqueous buffer, pH 5.5 buffer solution.
Where [6] appears, read: aqueous buffer, pH 6.0 buffer solution.
The mark [7] stands for this setting: aqueous buffer, pH 6.8 buffer solution.
Where [8] appears, read: aqueous buffer, pH 7.4 buffer solution.
Setting [9] is: female SD rats, IV single, 2.0 mg/kg.
Setting [10] is: female SD rats, single intragastric (PO) 4.0 mg/kg.
[11] abbreviates: male SD rats, IV single, 2.0 mg/kg.
Where [12] appears, read: male SD rats, single intragastric (PO) 4.0 mg/kg.

≈ marks a conversion by molar mass, not a printed value. Read-outs that look alike come from different tables or passages of the source.

On to `CC(C)(Sc1nnc(Br)n1-c1sc(C2CC2)c2c1CCC(F)(F)C2)C(=O)O` [crystal form A], for which the “Solubility (4 hrs)” value in data set [1] (0.01N HCl), in data set [1] (0.1N HCl) and in data set [1] (pH 3.8 buffer solution) was “<LOQ” throughout. Further, the “Solubility (24 hrs)” value in data set [1] (0.01N HCl), in data set [1] (0.1N HCl) and in data set [1] (pH 3.8 buffer solution) was “<LOQ” each time. Besides, the solubility at 4 h in data set [1] (setting [4]) is 1 µg/mL (≈ 2.09 µM); in data set [1] (setting [5]) it was 66 µg/mL (≈ 138 µM); in data set [1] (setting [6]) it was 214 µg/mL (≈ 447 µM); in data set [1] (setting [7]), 1960 µg/mL (≈ 4100 µM); in data set [1] (setting [8]) it was 3820 µg/mL (≈ 7990 µM); in data set [1] (Purified water), 45 µg/mL (≈ 94.1 µM). Also, the solubility at 24 h in data set [1] (setting [4]) amounted to 1 µg/mL (≈ 2.09 µM); in data set [1] (setting [5]), 66 µg/mL (≈ 138 µM); in data set [1] (setting [6]) it was 204 µg/mL (≈ 426 µM); in data set [1] (setting [7]) it was 1840 µg/mL (≈ 3850 µM); in data set [1] (setting [8]) it was 4050 µg/mL (≈ 8460 µM); in data set [1] (Purified water) it was 58 µg/mL (≈ 121 µM). In addition, the “Solubility in high pH buffer (conclusion)” value in data set [1] (high pH buffer) is “good solubility”.
Consider `CC(C)(Sc1nnc(Br)n1-c1sc(C2CC2)c2c1CCC(F)(F)C2)C(=O)O` [compound of formula (I)], for which the AUC(0-inf) in data set [2] (setting [9]) was determined as 5240 ± 544 ng·h/mL; in data set [2] (setting [10]), 9010 ± 4670 ng·h/mL; in data set [2] (setting [11]) it was 3530 ± 723 ng·h/mL; in data set [2] (setting [12]), 2510 ng·h/mL. For the same compound, the half-life was 3.04 ± 1.12 h in data set [2] (female SD rats, IV single, 2.0 mg/kg, read-out: elimination half-life (T1/2) (converted)); 3.48 ± 0.835 h in data set [2] (female SD rats, single intragastric (PO) 4.0 mg/kg, read-out: elimination half-life (T1/2) (converted)); 2.52 ± 0.671 h in data set [2] (male SD rats, IV single, 2.0 mg/kg, read-out: T1/2 (converted)); 1.72 h in data set [2] (male SD rats, single intragastric (PO) 4.0 mg/kg, read-out: elimination half-life (T1/2) (converted)). Further, the clearance in data set [2] (setting [9]) is 6.41 ± 0.656 mL/min/kg; in data set [2] (setting [11]), 9.76 ± 2.29 mL/min/kg. Further, the Vd worked out at 1.55 ± 0.408 L/kg in data set [2] (setting [9]) and 1.65 ± 0.44 L/kg in data set [2] (setting [11]). The bioavailability in data set [2] (female SD rats) was determined as 86%; in data set [2] (male SD rats), 35.6%. Moreover, the Cmax in data set [2] (setting [10]) worked out at 2110 ± 1350 ng/mL; in data set [2] (setting [12]) it was 1130 ± 483 ng/mL. The Tmax was determined as 0.667 ± 0.289 h in data set [2] (setting [10]) and 0.417 ± 0.144 h in data set [2] (setting [12]). Further, the IC50 in data set [3] (HEK293A-URAT1 cells, 2 min administration, n=3, read-out: IC50, inhibition of uptake of 14C-UA mediated by URAT1) stood at 34 nM. The “Inhibitory effect on URAT1 relative to reference compound lesinurad” value in data set [3] (ratio of IC50 values) is on record as “about 177 times”.

The values are drawn from patent US10995087B2, “Crystal form of URAT1 inhibitor, and preparation method therefor” (MEDSHINE DISCOVERY INC., priority 2017, dated 2021).
